From PMC11475369, “Exploring the Potential of Synthetic Cannabinoids: Modulation of Biological Activity of Normal and Cancerous Human Colon Epithelial Cells” (Cells, 2024)
Values after ≈ are worked out from the molar mass of the structure shown.

Key:
[1] = test system: CCD 841 CoTr cells; assay: Flow cytometry (PI) cell cycle analysis of CCD 841 CoTr cells; assay type: cell-based, human; settings: 25 μg/mL, 24 h
Procedure: In the flow cytometric study, we assessed the impact of the cannabinoids at a concentration of 25 μg/mL on the distribution of cell cycle phases in the normal and cancer cells after 24 h incubation. Both adhered, and non-adsorbed (floating) cells were used to perform the analyses. They were collected after 24 h of incubation with the tested cannabinoids and centrifuged (3000 rpm/5 min.). Next, the cell pellet was rinsed and suspended in PBS w/o Ca^2+ and Mg^2+ ions and centrifuged again (3000 rpm/5 min.). The cell pellet was suspended and fixed in 70% ethanol (1 mL). Untreated cells served as a control. The cells were stored at −20 °C for 1 week. After that time, in accordance with the manufacturer protocol, the cells were subjected to the PI staining procedure (PI/RNase Staining Buffer, BD PharmingenTM, BD Biosciences, San Jose, CA, USA). Briefly, 1 mL of PBS w/o Ca^2+ and Mg^2+ ions was added to 1 mL of ethanol and incubated with gentle stirring for 5 min. at room temperature. Next, the cells were centrifuged (3000 rpm/5 min.) and suspended in PBS w/o Ca^2+ and Mg^2+ ions with gentle stirring for 5 min. at room temperature. The cells were centrifuged once again (3000 rpm/5 min.) and the cell pellet was suspended in 500 μL of PI/RNase Staining Buffer. The incubation was carried out for 15 min. at room temperature. Finally, the intensity of the PI fluorescence was measured using FACS Calibur (BD Pharmingen^TM). The obtained data were analyzed using Cell Quest Pro Version 6.0. for the Macintosh operating system (BD Pharmingen^TM). The percentage of cells in the appropriate phases of the cycle was calculated based on all analyzed gated cells. A total of 10,000 events were measured per sample.

[2] = test system: HT29 cells; assay: MTT assay, metabolic activity of HT29 cells; assay type: cell-based; settings: Homo sapiens, HT-29; HT29 colon tumor cells, 24 h incubation; read-out: IC50 Values (MTT method)
Procedure: (§1) The HT29 cell line (ATCC no. HTB-38) (human colon adenocarcinoma) was used in the present study. Cells were cultivated in RPMI 1640 culture medium with 10% fetal calf serum (FCS) (GibcoTM, Paisley, UK), supplemented with antibiotics (100 U/mL penicillin and 100 μg/mL streptomycin) (Sigma, St. Louis, MO, USA). The cell culture was performed in standard conditions, i.e., at 37 °C in a humidified atmosphere with 5% CO2. The CCD 841 CoTr cell line (ATCC no. CRL-1807) (human normal colon epithelium) was cultivated in RPMI 1640 +DMEM (1:1) medium (Sigma, St. Louis, MO, USA) with 10% FCS and the addition of antibiotics. The culture was carried out at 34 °C in a 5% CO2/95% air atmosphere.
(§2) After seeding (1 × 10^5 cells/mL) in a 96-well plate, the cells were incubated for 24 h. Thereafter, the tested compounds (100 μL) at a concentration range of 0–200 μg/mL in the culture medium were added to the wells (100 μL). The incubation lasted for 24 h. After that time, an MTT solution (5 mg/mL, 25 μL/well) was added to each well. The incubation was continued for another 3 h. After the incubation, 10% sodium dodecyl sulfate (SDS) in 0.01 M HCl (100 μL) was added in order to dissolve the purple formazan crystals. Solubilization was carried out overnight. Finally, spectrophotometric measurement was performed at 570 nm using an EL800 Universal Microplate Reader (BioTek Instruments, Winooski, VT, USA).

[3] = test system: CCD 841 CoTr cells; assay: Nitric oxide (NOx) release in CCD 841 CoTr culture, Griess method; assay type: cell-based, human; settings: CCD 841 CoTr normal cells, 0–200 μg/mL, 24 h
Procedure: In this spectrophotometric method, the stable end products (nitrate and nitrite) were analyzed in the normal and tumor culture supernatants after 24 h of incubation of the cells with the cannabinoids in the concentration range of 0–200 μg/mL. The Griess reaction was applied. This method involves a 2-step reaction, whose product is a red-pink azo dye. The amount of this dye is directly proportional to the amount of NO. The cells were cultured for 24 h in 24-well plates (1 mL/well, density 1 × 10^5 cells/mL); next, after withdrawing the culture fluid, the tested cannabinoids were added to the wells at a volume of 1 mL/well and the incubation was carried out for another 24 h. After the incubation, the culture media were collected and frozen at −80 °C for no longer than 1 month. For calibration and quantitative analysis, the standard curve was prepared using 0.5–25 μM sodium nitrite (NaNO2). Thawed and centrifuged (5000 rpm/5 min.) supernatant samples and the standard were poured into a 96-well flat-bottomed plate at 100 µL/well. Each sample was analyzed in triplicate. Subsequently, 100 µL/well of Griess reagent (1% sulfanilamide/0.1% N-(1-naphthyl)ethylenediamine dihydrochloride) in 3% H3PO4 was added to all wells and incubated at room temperature for 10 min. Finally, the absorbance of the samples was spectrophotometrically read at 570 nm using an EL800 Universal Microplate Reader (BioTek Instruments, Winooski, VT, USA).

[4] = test system: HT29 cells; assay: Neutral Red (NR) uptake assay, viability of HT29 cells; assay type: cell-based; settings: Homo sapiens, HT-29; HT29 colon tumor cells, 24 h incubation
Procedure: as §1
(§3) After seeding (1 × 10^5 cells/mL) in a 96-well plate, the cells were incubated for 24 h. Thereafter, the tested compounds (100 μL) at a concentration range of 0–200 μg/mL in the culture medium were added to the wells (100 μL). The incubation lasted for 24 h. After that time, the culture medium was removed and a 0.4% Neutral Red solution in the culture medium was added to each well. The incubation was continued for another 3 h. After the incubation, the medium with the NR dye was discarded, and 4% paraformaldehyde in 1% CaCl2 was added for cell fixation (200 μL) and incubated for 3 min. Intracellular dye deposits were solubilized using 1% […] in a 50% ethanol solution (100 μL). The plates were then gently shaken (20 min.) at room temperature to dissolve and release the dye from the cells. Finally, spectrophotometric measurement was performed at 540 nm using an EL800 Universal Microplate Reader (BioTek Instruments, Winooski, VT, USA).

[5] = Flow cytometry annexin V-FITC/PI, cell death types in CCD 841 CoTr cells; assay type: cell-based, human; settings: human, CCD 841 CoTr cells (normal cells), read-out: Percentage of viable cells
Procedure: (§4) In a further flow cytometric study measuring normal and tumor cell death types, the cells were exposed to the cannabinoids at a concentration of 25 μg/mL for 24 h.
(§5) The annexin V-fluorescein isothiocyanate (FITC)/propidium iodide (PI) apoptosis kit (BD Biosciences, BD Pharmingen™, San Jose, CA, USA) was used for the quantitative analysis of cannabinoid-induced cell death.
(§6) For the analyses, both adhered (after detaching the cells with 10 mM EDTA in PBS w/o Ca^2+ and Mg^2+ ions solution) and floating cells were collected after 24 h of incubation with the tested cannabinoids. After collection, the cells were gently centrifuged (1000 rpm/5 min.). Next, the supernatant was discarded, and the cell pellet was suspended in warm PBS w/o Ca^2+ and Mg^2+ ions and incubated for 5 min. at room temperature. The centrifugation procedure was repeated again and, following the manufacturer’s procedure, the cells were suspended in 100 μL of 1X Annexin V Binding Buffer with 5 μL of FITC Annexin V […] and 5 μL of propidium iodide (PI) (5 mM). The preparation was gently vortexed and incubated at room temperature for 15 min. in the dark. After that time, the cells were subjected to cytometric analysis. Before dosing the cells into the cytometer, 400 μL of 1X Binding Buffer was added. The cells were analyzed using a flow cytometer (BD FACSCalibur) with CellQuest Pro Version 6.0 software within 1 h after the staining was completed.

[6] = test system: CCD 841 CoTr cells; assay: as above; assay type: cell-based, human; settings: 25 μg/mL, 24 h
Procedure: as §4, §5, §6

[7] = test system: HT29 cells; assay: Flow cytometry annexin V-FITC/PI, cell death types in HT29 cells; assay type: cell-based, human; settings: HT29, 25 μg/mL, 24 h
Procedure: as §4, §5, §6

[8] = test system: CCD 841 CoTr cells; assay: MTT assay, metabolic activity of CCD 841 CoTr cells; assay type: cell-based, human; settings: Homo sapiens, CCD-841, 24 h, CCD 841 CoTr colon normal cells, 24 h incubation; read-out: IC50 Values (MTT method)
Procedure: as §1, §2

[9] = test system: CCD 841 CoTr cells; assay: Neutral Red (NR) uptake assay, viability of CCD 841 CoTr cells; assay type: cell-based; settings: Homo sapiens; CCD 841 CoTr colon normal cells, 24 h incubation
Procedure: as §1, §3

C=C(C)[C@@H]1CCC(C)=C[C@H]1c1c(O)cc(CCCCC)cc1O [CBD, cannabidiol]
Increase in the number of cells in the sub-G1 phase compared to the control [1]: 21.88%
Percentage of cells in G1 phase [1]: 21.89 ± 0.34 %
Percentage of cells in G2 phase [1]: 14.10 ± 0.19 %
Percentage of cells in S phase [1]: 16.39 ± 0.04 %
Percentage of cells in sub-G1 phase [1]: 44.01 ± 0.37 %
IC50 [2]: 57.5 µg/mL (≈ 183 µM)
Effect on release of nitric oxide NOx (in words) [3]: increase in NOx levels with increasing concentration
IC50 [4]: 60.5 µg/mL (≈ 192 µM)
viability at 24 h, 25 μg/mL [5]: 79.4 ± 1.18%
Cells in late apoptosis, more than in the control [6]: 11.36%
Cells in necrosis, more than in the control [6]: 1.43%
Percentage of cells in early apoptosis [6]: 1.97 ± 0.19%
Percentage of cells in late apoptosis [6]: 16.96 ± 1.26 %
Percentage of cells in necrosis [6]: 1.71 ± 0.28 %
Reduction in the number of viable normal cells compared to the control [6]: 12.95%
Percentage of cells in early apoptosis [7]: 0.77 ± 0.21%
Percentage of cells in late apoptosis [7]: 17.03 ± 0.29 %
Percentage of cells in necrosis [7]: 0.67 ± 0.22%
Reduction in the number of viable cells compared to the control [7]: 13.62%
viability at 25 µg/mL ([7]; Homo sapiens, HT-29, read-out: Percentage of viable cells): 81.54 ± 0.28%
IC50 [8]: 42.6 µg/mL (≈ 135 µM)
IC50 [9]: 48.2 µg/mL (≈ 153 µM)
